ChEMBL document CHEMBL1201862, “PubChem BioAssay data set” (2004)
Activity calls are given as the source filed them.

Columns and labels:
[1] = ZM109 Env clade C HIV-1 fusion inhibitors, dose response, HeLa effector, CEM target cells, luciferase, cherry-pick (AID 652058); format: functional, cell-based
[2] = Luminescence Cell-Based Dose Response HTS to Identify Inhibitors of 5'UTR Stem-Loop Driven Prion Protein mRNA Translation in H4 Neuroglioblastoma Cells. [Related pubchem assays: 1827 (Project Summary), 1813 (Primary HTS)]; format: functional
[3] = off-target signal loss in HeLa-CEM21 co-culture – HeLa F-luc CTL cells, cherry-picked, counter-screen for HIV-1 Env fusion inhibitor project, dose response (AID 652040); format: functional, cell-based;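 also: potency for signal decrease marking cytotoxic or nonspecific inhibition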
[4] = inhibitors of SNCA 5'UTR-driven reporter translation, confirmation, H4 neuroglioma cells, luminescence (AID 1988); format: functional, cell-based
[5] = molecular target: T1, Microphthalmia-associated transcription factor (Homo sapiens, UniProt O75030); assay: TRPM1 promoter luciferase signal decrease, dose response, MITF inhibitor project, cell-based, SK-MEL-5, cherry-picked, set 3 (AID 493073); format: functional
T1 sequence (O75030 whole entry): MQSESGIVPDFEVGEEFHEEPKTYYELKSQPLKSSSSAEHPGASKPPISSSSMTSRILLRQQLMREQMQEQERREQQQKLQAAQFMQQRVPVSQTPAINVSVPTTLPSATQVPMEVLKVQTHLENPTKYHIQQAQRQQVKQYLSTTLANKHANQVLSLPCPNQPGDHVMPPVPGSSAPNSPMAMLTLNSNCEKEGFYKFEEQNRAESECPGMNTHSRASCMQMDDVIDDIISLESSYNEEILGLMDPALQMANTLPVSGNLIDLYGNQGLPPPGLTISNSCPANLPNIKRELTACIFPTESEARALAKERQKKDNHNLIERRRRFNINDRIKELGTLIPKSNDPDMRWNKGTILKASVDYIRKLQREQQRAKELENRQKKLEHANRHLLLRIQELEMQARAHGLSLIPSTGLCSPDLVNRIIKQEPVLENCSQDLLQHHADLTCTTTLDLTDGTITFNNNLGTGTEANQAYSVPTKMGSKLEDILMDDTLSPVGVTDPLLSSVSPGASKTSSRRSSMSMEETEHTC

[6] = inhibitors of HIV Env-driven cell fusion, dose response, cherry-pick (AID 652057); format: functional, cell-based
[7] = Luminescence-based counterscreen assay for KLF5 inhibitors: dose response cell-based high throughput screening assay to identify cytotoxic compounds using the IEC-6 intestinal epithelial cell line. [Related pubchem assays: 1700 (Primary screen.), 1834 (Confirmation screen.), 1858 (Summary AID.), 1905 (Counterscreen.)]; format: functional
[8] = inhibitors of clade B AD8 Env fusion, dose response, cell-based, cherry-pick (AID 652062); format: functional;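 also: luciferase signal from cell-cell fusion driven by HIV-1 clade B AD8 Env; potency is for inhibitors of fusion seen as a drop in luminescence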
[9] = inhibitors of firefly luciferase expression or activity, dose response, H4 neuroglioma cells, luminescence (AID 1990); format: functional, cell-based
[10] = molecular target: T2, Heat shock factor protein 1 (Mus musculus, UniProt P38532); assay: inhibition of MG132-induced HSE-luciferase signal, confirmation, cell-based, NIH3T3, luminescence, dose retest (AID 2382); format: functional;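 also: NIH3T3 fibroblasts with HSF1-driven luciferase reporter stressed by proteasome inhibitor MG132; luminescence from HSF1-driven luciferase expression after 8 hours of MG132 stress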
T2 sequence (P38532 whole entry): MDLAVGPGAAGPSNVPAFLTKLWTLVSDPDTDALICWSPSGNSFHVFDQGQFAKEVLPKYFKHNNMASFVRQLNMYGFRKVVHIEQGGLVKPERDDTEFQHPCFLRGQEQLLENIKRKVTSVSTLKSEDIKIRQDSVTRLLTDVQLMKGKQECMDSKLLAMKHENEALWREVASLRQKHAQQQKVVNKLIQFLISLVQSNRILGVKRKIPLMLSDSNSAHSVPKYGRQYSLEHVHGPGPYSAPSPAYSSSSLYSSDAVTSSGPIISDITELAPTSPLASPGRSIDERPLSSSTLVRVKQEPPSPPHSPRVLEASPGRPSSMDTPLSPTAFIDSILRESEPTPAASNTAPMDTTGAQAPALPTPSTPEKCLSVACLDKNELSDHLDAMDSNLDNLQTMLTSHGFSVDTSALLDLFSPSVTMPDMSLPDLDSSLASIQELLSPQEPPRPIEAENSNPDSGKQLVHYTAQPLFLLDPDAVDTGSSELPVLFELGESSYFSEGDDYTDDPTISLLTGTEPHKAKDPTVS

[11] = enhancers of respiration in Yfh1-depleted yeast, dose response, Friedreich's ataxia, plus single-dose screen (AID 1465); format: functional;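 also: yeast depleted of Yfh1p frataxin homolog grown on glycerol needing respiration; WST-1 tetrazolium dye reduction as measure of cellular dehydrogenase metabolic activity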
[12] = C. albicans growth with fluconazole, confirmation, fluorescence, retest (AID 2467); format: functional, cell-based
[13] = NIH-3T3 fibroblast cytotoxicity, dose response, cytotoxicity control, cell-based, fluorescence, Alamar Blue, secondary assay (AID 2327); format: functional;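 also: NIH-3T3 mouse fibroblasts cultured with fluconazole at 8 µg/mL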
[14] = inhibitors of Bluetongue virus cytopathic effect, confirmation, arbovirus, BSR cells (AID 1250); format: functional;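 also: protection from viral cytopathic effect measured as cell viability by ATP luminescence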
[15] = molecular target: Genome polyprotein (dengue virus type 2, UniProt P29990); assay: Dengue-2 NS5 methyltransferase inhibitors, primary screen, biochemical, confirmation dose response (AID 588689); format: functional
Genome polyprotein, sequence (P29990 2492-3391 limits assumed): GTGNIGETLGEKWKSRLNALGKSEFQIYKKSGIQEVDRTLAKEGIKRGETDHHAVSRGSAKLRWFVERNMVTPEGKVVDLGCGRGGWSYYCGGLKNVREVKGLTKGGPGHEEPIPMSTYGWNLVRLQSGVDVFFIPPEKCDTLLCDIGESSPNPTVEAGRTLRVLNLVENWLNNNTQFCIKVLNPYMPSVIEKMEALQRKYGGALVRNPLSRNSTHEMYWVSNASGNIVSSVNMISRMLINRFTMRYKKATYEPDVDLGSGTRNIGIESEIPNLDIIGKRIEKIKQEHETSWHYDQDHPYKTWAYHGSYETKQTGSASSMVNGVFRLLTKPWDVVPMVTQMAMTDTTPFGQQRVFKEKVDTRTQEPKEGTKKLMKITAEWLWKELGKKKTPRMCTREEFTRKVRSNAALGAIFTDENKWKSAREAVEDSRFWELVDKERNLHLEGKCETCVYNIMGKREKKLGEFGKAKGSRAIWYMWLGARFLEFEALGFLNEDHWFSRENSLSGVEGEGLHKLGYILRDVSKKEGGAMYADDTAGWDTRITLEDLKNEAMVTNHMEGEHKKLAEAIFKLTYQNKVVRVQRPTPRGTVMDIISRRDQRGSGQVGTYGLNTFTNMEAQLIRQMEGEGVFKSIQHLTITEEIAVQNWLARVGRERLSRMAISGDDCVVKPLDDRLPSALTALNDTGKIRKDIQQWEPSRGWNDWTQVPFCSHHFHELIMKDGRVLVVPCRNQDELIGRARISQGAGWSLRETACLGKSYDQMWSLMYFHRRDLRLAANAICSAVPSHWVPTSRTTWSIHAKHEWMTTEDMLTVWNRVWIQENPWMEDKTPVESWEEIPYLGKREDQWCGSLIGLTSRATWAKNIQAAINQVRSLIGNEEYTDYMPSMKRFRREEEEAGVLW

[16] = system: H9c2; assay: cells; format: functional, cell-based; conditions: Rattus norvegicus, H9c2, Myocardium;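 also: confirmatory concentration-response retest of ultra-high-throughput screening hits for modulation of myocardial damage; cell death induced by hydrogen peroxide oxidative stress; compound pretreatment for 60 min then peroxide exposure for 2 h; potency is for protecting the cells against peroxide damage rather than for killing them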
[17] = A Cell Based Secondary Assay To Explore Cytotoxicity of Compounds that Sensitize Mycobacterium Tuberculosis to Beta-Lactam Antibiotics.; format: functional

SMILES: O=C(NC1=NCCS1)C1COc2ccccc2O1 (configuration not stated)
- AC50 [1]: 13.7 µM (active)
- EC50 [2]: > 60 µM (not active)
- AC50 [3]: 3.15 µM (active)
- EC50 [4]: 0.149 µM (active)
- AC50 [5]: 1.7 µM (active)
- AC50 [6]: 1.62 µM (active)
- IC50 [7]: > 39.8 µM (not active)
- AC50 [8]: 3.6 µM (active)
- EC50 [9]: 3.37 µM (active)
- EC50 [10]: 8.01 µM (active)

SMILES: CC(C)NC(=O)/C(C#N)=C/c1ccc(N(C)C)o1
- EC50 [11]: > 100 µM (active)

SMILES: CCCCCCn1c(=O)c(-c2ccccc2)c(O)c2ccccc21
- EC50 [12]: 4.42 µM (active)
- EC50 [13]: > 150 µM (inactive)
- IC50 [14]: 25 µM (active)
- IC50 [15]: 69.4 µM (active)

SMILES: Nc1c(C(=O)NC2CC2)c2nc3ccccc3nc2n1-c1ccc2c(c1)OCO2
- IC50 [16]: > 79 µM (inactive)
- CC50 [17]: > 40 µM (active)
